{
  "source": "paper PMC6364417",
  "about": "“Kinase inhibitor library screening identifies synergistic drug combinations effective in sensitive and resistant melanoma cells” (Journal of Experimental & Clinical Cancer Research : CR, 2019)",
  "experiment_in_all_cases": "Kinase inhibitor library screening, PrestoBlue cell viability, 1 or 10 μM, 72 h",
  "key": {"[1]": {"system": "501Mel cells (parental)", "conditions": "for cell viability (kinase inhibitor library screening): 501Mel Parental; for viability at 1 µM / viability at 10 µM: Homo sapiens; for viability at 1 µM: read-out: cell viability, 501Mel Parental, 1μΜ; for viability at 10 µM: read-out: cell viability, 501Mel Parental, 10μΜ", "outline": "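Normalised to untreated controls, viability percentages came from PrestoBlue measured on a microplate reader following 72 h incubation with drug. Each line was assayed at least twice.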"}, "[2]": {"system": "501Mel-GP cells (Dabrafenib-resistant)", "conditions": "for cell viability (kinase inhibitor library screening): 501Mel GP; for viability at 1 µM / viability at 10 µM: Homo sapiens; for viability at 1 µM: read-out: cell viability, 501Mel GP, 1μΜ; for viability at 10 µM: read-out: cell viability, 501Mel GP, 10μΜ"}, "[3]": {"system": "501Mel-XP cells (Vemurafenib-resistant)", "conditions": "for cell viability (kinase inhibitor library screening): 501Mel XP; for viability at 1 µM / viability at 10 µM: Homo sapiens; for viability at 1 µM: read-out: cell viability, 501Mel XP, 1μΜ; for viability at 10 µM: read-out: cell viability, 501Mel XP, 10μΜ"}, "[4]": {"system": "A375 cells (parental)", "conditions": "for cell viability (kinase inhibitor library screening): A375 Parental; for viability at 1 µM / viability at 10 µM: Homo sapiens, A-375, 72 h; for viability at 1 µM: read-out: cell viability, A375 Parental, 1μΜ; for viability at 10 µM: read-out: cell viability, A375 Parental, 10μΜ"}, "[5]": {"system": "A375-GP cells (Dabrafenib-resistant)", "conditions": "for cell viability (kinase inhibitor library screening): A375 GP; for viability at 1 µM / viability at 10 µM: Homo sapiens, A-375, 72 h; for viability at 1 µM: read-out: cell viability, A375 GP, 1μΜ; for viability at 10 µM: read-out: cell viability, A375 GP, 10μΜ"}, "[6]": {"system": "A375-XP cells (Vemurafenib-resistant)", "conditions": "for cell viability (kinase inhibitor library screening): A375 XP; for viability at 1 µM / viability at 10 µM: Homo sapiens, A-375, 72 h; for viability at 1 µM: read-out: cell viability, A375 XP, 1μΜ; for viability at 10 µM: read-out: cell viability, A375 XP, 10μΜ"}, "[7]": {"system": "IGR37 cells (parental)", "conditions": "for cell viability (kinase inhibitor library screening): IGR37 Parental; for viability at 1 µM / viability at 10 µM: Homo sapiens, IGR-37, 72 h; for viability at 1 µM: read-out: cell viability, IGR37 Parental, 1μΜ; for viability at 10 µM: read-out: cell viability, IGR37 Parental, 10μΜ"}, "[8]": {"system": "IGR37-GP cells (Dabrafenib-resistant)", "conditions": "for cell viability (kinase inhibitor library screening): IGR37 GP; for viability at 1 µM / viability at 10 µM: Homo sapiens, IGR-37, 72 h; for viability at 1 µM: read-out: cell viability, IGR37 GP, 1μΜ; for viability at 10 µM: read-out: cell viability, IGR37 GP, 10μΜ"}, "[9]": {"system": "IGR37-XP cells (Vemurafenib-resistant)", "conditions": "for cell viability (kinase inhibitor library screening): IGR37 XP; for viability at 1 µM / viability at 10 µM: Homo sapiens, IGR-37, 72 h; for viability at 1 µM: read-out: cell viability, IGR37 XP, 1μΜ; for viability at 10 µM: read-out: cell viability, IGR37 XP, 10μΜ"}},
  "data": [
    {"smiles": "CN1CCN(CCOc2cc(OC3CCOCC3)c3c(Nc4c(Cl)ccc5c4OCO5)ncnc3c2)CC1", "note": "[Saracatinib (AZD0530)]", "values": [
      {"measurement": "cell viability (kinase inhibitor library screening)", "setting": "[1]; 1μΜ, in %", "value": 105.0},
      {"measurement": "cell viability (kinase inhibitor library screening)", "setting": "[2]; 1μΜ, in %", "value": 100.5},
      {"measurement": "cell viability (kinase inhibitor library screening)", "setting": "[2]; 10μΜ, in %", "value": 90.5},
      {"measurement": "cell viability (kinase inhibitor library screening)", "setting": "[3]; 1μΜ, in %", "value": 95.7},
      {"measurement": "cell viability (kinase inhibitor library screening)", "setting": "[3]; 10μΜ, in %", "value": 79.4},
      {"measurement": "cell viability (kinase inhibitor library screening)", "setting": "[4]; 1μΜ, in %", "value": 92.2},
      {"measurement": "cell viability (kinase inhibitor library screening)", "setting": "[4]; 10μΜ, in %", "value": 71.5},
      {"measurement": "cell viability (kinase inhibitor library screening)", "setting": "[5]; 1μΜ, in %", "value": 81.5},
      {"measurement": "cell viability (kinase inhibitor library screening)", "setting": "[5]; 10μΜ, in %", "value": 56.9},
      {"measurement": "cell viability (kinase inhibitor library screening)", "setting": "[6]; 1μΜ, in %", "value": 92.8},
      {"measurement": "cell viability (kinase inhibitor library screening)", "setting": "[6]; 10μΜ, in %", "value": 71.3},
      {"measurement": "cell viability (kinase inhibitor library screening)", "setting": "[7]; 10μΜ, in %", "value": 96.3},
      {"measurement": "cell viability (kinase inhibitor library screening)", "setting": "[8]; 1μΜ, in %", "value": 96.8},
      {"measurement": "cell viability (kinase inhibitor library screening)", "setting": "[8]; 10μΜ, in %", "value": 77.9},
      {"measurement": "cell viability (kinase inhibitor library screening)", "setting": "[9]; 1μΜ, in %", "value": 97.3},
      {"measurement": "cell viability (kinase inhibitor library screening)", "setting": "[9]; 10μΜ, in %", "value": 61.7}
    ]},
    {"smiles": "N#Cc1c(O)c2c(-c3ccc(-c4ccccc4O)cc3)csc2[nH]c1=O", "note": "[A-769662]", "values": [
      {"measurement": "cell viability (kinase inhibitor library screening)", "setting": "[1]; 1μΜ, 72 h", "value": 99.2, "unit": "%"},
      {"measurement": "cell viability (kinase inhibitor library screening)", "setting": "[1]; 10μΜ, 72 h", "value": 97.1, "unit": "%"},
      {"measurement": "cell viability (kinase inhibitor library screening)", "setting": "[2]; 10μΜ, 72 h", "value": 87.9, "unit": "%"},
      {"measurement": "cell viability (kinase inhibitor library screening)", "setting": "[3]; 1μΜ, 72 h", "value": 97.4, "unit": "%"},
      {"measurement": "cell viability (kinase inhibitor library screening)", "setting": "[3]; 10μΜ, 72 h", "value": 85.6, "unit": "%"},
      {"measurement": "cell viability (kinase inhibitor library screening)", "setting": "[4]; 10μΜ, 72 h", "value": 97.0, "unit": "%"},
      {"measurement": "cell viability (kinase inhibitor library screening)", "setting": "[4]; 1μΜ, 72 h", "value": 105.0, "unit": "%"},
      {"measurement": "cell viability (kinase inhibitor library screening)", "setting": "[5]; 10μΜ, 72 h", "value": 96.0, "unit": "%"},
      {"measurement": "cell viability (kinase inhibitor library screening)", "setting": "[6]; 1μΜ, 72 h", "value": 104.3, "unit": "%"},
      {"measurement": "cell viability (kinase inhibitor library screening)", "setting": "[7]; 1μΜ, 72 h", "value": 105.9, "unit": "%"},
      {"measurement": "cell viability (kinase inhibitor library screening)", "setting": "[7]; 10μΜ, 72 h", "value": 111.3, "unit": "%"},
      {"measurement": "cell viability (kinase inhibitor library screening)", "setting": "[8]; 10μΜ, 72 h", "value": 94.7, "unit": "%"},
      {"measurement": "cell viability (kinase inhibitor library screening)", "setting": "[9]; 1μΜ, 72 h", "value": 104.5, "unit": "%"},
      {"measurement": "cell viability (kinase inhibitor library screening)", "setting": "[9]; 10μΜ, 72 h", "value": 84.8, "unit": "%"}
    ]},
    {"smiles": "Cc1cc(Nc2nc(N[C@@H](C)c3ccc(F)cc3)c(C#N)cc2F)[nH]n1", "note": "[AZ 960]", "values": [
      {"measurement": "viability at 1 µM", "setting": "[1]; 72 h", "value": 49.1, "unit": "%"},
      {"measurement": "viability at 10 µM", "setting": "[1]; 72 h", "value": 65.1, "unit": "%"},
      {"measurement": "viability at 1 µM", "setting": "[2]; 72 h", "value": 34.2, "unit": "%"},
      {"measurement": "viability at 10 µM", "setting": "[2]; 72 h", "value": 66.8, "unit": "%"},
      {"measurement": "viability at 1 µM", "setting": "[3]; 72 h", "value": 39.4, "unit": "%"},
      {"measurement": "viability at 10 µM", "setting": "[3]; 72 h", "value": 60.4, "unit": "%"},
      {"measurement": "viability at 1 µM", "setting": "[4]", "value": 48.9, "unit": "%"},
      {"measurement": "viability at 10 µM", "setting": "[4]", "value": 40, "unit": "%"},
      {"measurement": "viability at 1 µM", "setting": "[5]", "value": 44, "unit": "%"},
      {"measurement": "viability at 10 µM", "setting": "[5]", "value": 37.8, "unit": "%"},
      {"measurement": "viability at 1 µM", "setting": "[6]", "value": 61.3, "unit": "%"},
      {"measurement": "viability at 10 µM", "setting": "[6]", "value": 46.1, "unit": "%"},
      {"measurement": "viability at 1 µM", "setting": "[7]", "value": 83.9, "unit": "%"},
      {"measurement": "viability at 10 µM", "setting": "[7]", "value": 90.7, "unit": "%"},
      {"measurement": "viability at 1 µM", "setting": "[8]", "value": 87.2, "unit": "%"},
      {"measurement": "viability at 10 µM", "setting": "[8]", "value": 73.9, "unit": "%"},
      {"measurement": "viability at 1 µM", "setting": "[9]", "value": 81.1, "unit": "%"},
      {"measurement": "viability at 10 µM", "setting": "[9]", "value": 39.7, "unit": "%"}
    ]},
    {"smiles": "CN(C)Cc1cccc(N/C(=C2\\C(=O)Nc3cc(C(N)=O)ccc32)c2ccccc2)c1", "note": "[BIX 02188]", "values": [
      {"measurement": "viability at 1 µM", "setting": "[1]; 72 h", "value": 95.5, "unit": "%"},
      {"measurement": "viability at 10 µM", "setting": "[1]; 72 h", "value": 91.7, "unit": "%"},
      {"measurement": "viability at 1 µM", "setting": "[2]; 72 h", "value": 104, "unit": "%"},
      {"measurement": "viability at 10 µM", "setting": "[2]; 72 h", "value": 96.3, "unit": "%"},
      {"measurement": "viability at 1 µM", "setting": "[3]; 72 h", "value": 96.7, "unit": "%"},
      {"measurement": "viability at 10 µM", "setting": "[3]; 72 h", "value": 86.6, "unit": "%"},
      {"measurement": "viability at 1 µM", "setting": "[4]", "value": 103, "unit": "%"},
      {"measurement": "viability at 10 µM", "setting": "[4]", "value": 95.5, "unit": "%"},
      {"measurement": "viability at 1 µM", "setting": "[5]", "value": 103, "unit": "%"},
      {"measurement": "viability at 10 µM", "setting": "[5]", "value": 85.4, "unit": "%"},
      {"measurement": "viability at 1 µM", "setting": "[6]", "value": 103, "unit": "%"},
      {"measurement": "viability at 10 µM", "setting": "[6]", "value": 98.5, "unit": "%"},
      {"measurement": "viability at 1 µM", "setting": "[7]", "value": 99.2, "unit": "%"},
      {"measurement": "viability at 10 µM", "setting": "[7]", "value": 109, "unit": "%"},
      {"measurement": "viability at 1 µM", "setting": "[8]", "value": 91, "unit": "%"},
      {"measurement": "viability at 10 µM", "setting": "[8]", "value": 93.3, "unit": "%"},
      {"measurement": "viability at 1 µM", "setting": "[9]", "value": 107, "unit": "%"},
      {"measurement": "viability at 10 µM", "setting": "[9]", "value": 71.5, "unit": "%"}
    ]}
  ]
}
